Measured values: US20110190135A1, “SYNERGISTIC HERBICIDAL COMPOSITION CONTAINING PENOXSULAM AND BUTACHLOR” (DOW AGROSCIENCES LLC, priority 2010, published 2011)

What was measured:
[1] = system: MOOVA - pickerel weed; experiment: Weed control in transplanted rice, Field trial #2; assay type: in vivo, Monochoria vaginalis; settings: 28 days after application
Method: (§1) Field trials were conducted in rice using standard herbicide small plot research methodology. Plot size was 2 m^2 using 1.6 m diameter rings placed into the paddy soil with capability for flooding with water to represent flooded rice culture. There were 3 replicates per treatment. Rice was Japonica type that was sown in rice nursery boxes as per normal cultural practices, and then transplanted 30 days after sowing into flooded rings. The rice crop was grown using normal cultural practices for fertilization, seeding, watering, flooding and maintenance to ensure good growth of the crop and the weeds under seeded rice conditions in Taiwan. Ring plot water depth was maintained at 3 to 7 cm depth after transplanting. Just prior to treatment application, plot water was drained to maintain saturated soil in ring plot. Treatments were applied by hand and water was re-induced to 3 to 7 cm depth 24 hours after application. All treatments in the field trials were applied by mixing the treatments with soil just prior to application by hand into the ring plots at 5 to 7 days after transplanting. Commercially available products of penoxsulam and butachlor were mixed in water and sprayed onto 45 grams of soil, which is equivalent to the area treated at an application rate of 225 kg soil/ha. […]

[2] = system: ISCRU - winklegrass; experiment: Weed control in transplanted rice, Field trial #3; assay type: in vivo, Ischaemum rugosum; settings: 42 days after application
Method: as §1

[3] = system: ECHCG - barnyard grass; experiment: Weed control in transplanted rice, Field trial #1; assay type: in vivo, Ehinochloa crus-galli; settings: 42 days after application
Method: as §1

[4] = system: ECHCG - barnyard grass; experiment: Weed control in transplanted rice, Field trial #2; assay type: in vivo, Ehinochloa crus-galli; settings: 28 days after application
Method: Field trials were conducted in rice using standard herbicide small plot research methodology. Plot size was 2 m^2 using 1.6 m diameter rings placed into the paddy soil with capability for flooding with water to represent flooded rice culture. There were 3 replicates per treatment. Rice was Japonica type that was sown in rice nursery boxes as per normal cultural practices, and then transplanted 30 days after sowing into flooded rings. The rice crop was grown using normal cultural practices for fertilization, seeding, watering, flooding and maintenance to ensure good growth of the crop and the weeds under seeded rice conditions in Taiwan. Ring plot water depth was maintained at 3 to 7 cm depth after transplanting. Just prior to treatment application, plot water was drained to maintain saturated soil in ring plot. Treatments were applied by hand and water was re-induced to 3 to 7 cm depth 24 hours after application. All treatments in the field trials were applied by mixing the treatments with soil just prior to application by hand into the ring plots at 5 to 7 days after transplanting. Commercially available products of penoxsulam and butachlor were mixed in water and sprayed onto 45 grams of soil, which is equivalent to the area treated at an application rate of 225 kg soil/ha. For each 2 m^2 plot, 45 g soil was mixed with the appropriate formulated product amounts to treat 2 m^2 to achieve the desired application rates based on unit area of application (hectare). Treatments were rated as compared to the untreated control plots. Visual weed control was rated on a scale of 0 to 100 percent, where 0 corresponds to no injury and 100 corresponds to complete kill. The treated plots and control plots were rated blind at various intervals after application. Ratings were based of Percent (%) Visual weed control, where 0 corresponds to no injury and 100 corresponds to complete kill. Colby's equation was used to determine the herbicidal effects expected from the mixtures (Colby, S. R. Calculation of the synergistic and antagonistic response of herbicide combinations. Weeds 1967 15, 20-22). The following equation was used to calculate the expected activity of mixtures containing two active ingredients, A and B: Expected=A+B−(A×B/100) A=observed efficacy of active ingredient A at the same concentration as used in the mixture; B=observed efficacy of active ingredient B at the same concentration as used in the mixture.

Row | Compound | MOOVA Obs - percent control observed ([1]; Butachlor 300 grams ai/ha) | ISCRU Obs - percent control observed ([2]; Butachlor 300 grams ai/ha) | ECHCG Obs - percent control observed ([3]; Butachlor 600 grams ai/ha) | ECHCG Obs - percent control observed ([4]; Butachlor 300 grams ai/ha) | MOOVA Obs - percent control observed ([1]; Penoxsulam 3.8 grams ai/ha) | ISCRU Obs - percent control observed ([2]; Penoxsulam 13 grams ai/ha) | ECHCG Obs - percent control observed ([3]; Penoxsulam 30 grams ai/ha) | ECHCG Obs - percent control observed ([4]; Penoxsulam 3.8 grams ai/ha) | ECHCG Obs - percent control observed ([4]; Penoxsulam 7.5 grams ai/ha) | ECHCG Obs - percent control observed ([4]; Penoxsulam 15 grams ai/ha)
1 | CCCCOCN(C(=O)CCl)c1c(CC)cccc1CC [Butachlor, N-butoxymethyl-2-chloro-2′,6′-diethylacetanilide] | 26% | 23% | 0% | 13% |  |  |  |  |  | 
2 | COc1cnc(OC)n2nc(NS(=O)(=O)c3c(OCC(F)F)cccc3C(F)(F)F)nc12 [Penoxsulam] |  |  |  |  | 75% | 1% | 27% | 0% | 15% | 88%
